Consider three compounds from ChEMBL document CHEMBL4261593, “Synthesis and antibacterial activity of novel 3-O-arylalkylcarbamoyl-3-O-descladinosyl-9-O-(2-chlorobenzyl)oxime clarithromycin derivatives” (2018).

≈ marks a conversion by molar mass, not a printed value.

Common to all, as to type: functional
In test [1] the test system is Streptococcus pneumoniae. Kind of test: Antibacterial activity against erythromycin-resistant Streptococcus pneumoniae A22072 expressing mefA gene after 24 hrs by broth dilution assay. Particulars: A22072, 24 h. A general note: Broth dilution looks for growth in wells or tubes with falling amounts of substance.
Test [2] deals with Streptococcus pyogenes. Kind of test: Antibacterial activity against erythromycin-resistant Streptococcus pyogenes 2 after 24 hrs by broth dilution assay. Particulars: Streptococcus pyogenes, 2, 24 h.
Another test deals with Escherichia coli. The test is described as follows: Antibacterial activity against penicillin-susceptible Escherichia coli ATCC 25922 after 24 hrs by broth dilution assay. The note with it: ATCC 25922, 24 h.
Test [3] deals with Streptococcus pneumoniae. The test is described as follows: Antibacterial activity against erythromycin-resistant Streptococcus pneumoniae B1 expressing ermB gene after 24 hrs by broth dilution assay. Particulars: B1, 24 h.
Test [4] concerns Staphylococcus aureus. The test is described as follows: Antibacterial activity against […] Staphylococcus aureus ATCC 29213 after 24 hrs by broth dilution assay. Particulars: ATCC 29213, 24 h.
Test [5] deals with Staphylococcus aureus. Kind of test: Antibacterial activity against erythromycin-susceptible Staphylococcus aureus ATCC 25923 after 24 hrs by broth dilution assay. Particulars: ATCC 25923, 24 h.
Test [6] has as its system Staphylococcus aureus. Kind of test: Antibacterial activity against penicillin-resistant Staphylococcus aureus ATCC 31007 after 24 hrs by broth dilution assay. Particulars: ATCC 31007, 24 h.
For test [7], the system named is Streptococcus pneumoniae. Kind of test: Potency index, ratio of CAM MIC to compound MIC for antibacterial activity against erythromycin-resistant Streptococcus pneumoniae A22072.
The next test relates to Pseudomonas aeruginosa. The test is described as follows: Antibacterial activity against penicillin-susceptible Pseudomonas aeruginosa ATCC 27853 after 24 hrs by broth dilution assay. Particulars: ATCC 27853, 24 h.
In another test the test system is Bacillus subtilis. Kind of test: Antibacterial activity against penicillin-susceptible Bacillus subtilis ATCC 9372 after 24 hrs by broth dilution assay. The note with it: ATCC 9372, 24 h.
The test system of test [8] is Streptococcus pneumoniae. The test is described as follows: Antibacterial activity against erythromycin-resistant Streptococcus pneumoniae AB11 expressing ermB and mefA genes after 24 hrs by broth dilution assay. Particulars: AB11, 24 h.
In test [9] the test system is Streptococcus pyogenes. The test is described as follows: Antibacterial activity against erythromycin-susceptible Streptococcus pyogenes 1 after 24 hrs by broth dilution assay. Particulars: Streptococcus pyogenes, 1, 24 h.
Test [10] deals with Streptococcus pneumoniae. The test is described as follows: Potency index, ratio of AZM MIC to compound MIC for antibacterial activity against erythromycin-resistant Streptococcus pneumoniae A22072.
In test [11] the test system is Streptococcus pyogenes. Kind of test: Potency index, ratio of AZM MIC to compound MIC for antibacterial activity against erythromycin-resistant Streptococcus pyogenes 2.
Test [12] deals with Streptococcus pyogenes. The test is described as follows: Potency index, ratio of CAM MIC to compound MIC for antibacterial activity against erythromycin-resistant Streptococcus pyogenes 2.
Test [13] has as its system Staphylococcus aureus. Kind of test: Potency index, ratio of AZM MIC to compound MIC for antibacterial activity against penicillin-resistant Staphylococcus aureus ATCC 31007.
For test [14], the system named is Staphylococcus aureus. The test is described as follows: Potency index, ratio of CAM MIC to compound MIC for antibacterial activity against penicillin-resistant Staphylococcus aureus ATCC 31007.

As usually defined, the MIC is the least concentration at which growth counts as inhibited. As for `CC[C@H]1OC(=O)[C@H](C)[C@@H](OC(=O)NC2CC2)[C@H](C)[C@@H](O[C@@H]2O[C@H](C)C[C@H](N(C)C)[C@H]2O)[C@](C)(OC)C[C@@H](C)/C(=N/OCc2ccccc2Cl)[C@H](C)[C@@H](O)[C@]1(C)O`, the minimum inhibitory concentration (MIC) was found to be 0.125 µg/mL (≈ 0.154 µM) in the test on Streptococcus pneumoniae [1]; 16 µg/mL (≈ 19.7 µM) in the test with Streptococcus pyogenes [2]; 128 µg/mL (≈ 158 µM) against Escherichia coli; 128 µg/mL (≈ 158 µM) against Streptococcus pneumoniae [3]; 128 µg/mL (≈ 158 µM) against Staphylococcus aureus [4]; 8 µg/mL (≈ 9.85 µM) in the test with Staphylococcus aureus [5]. The MIC against Staphylococcus aureus [6] worked out at 16 µg/mL (≈ 19.7 µM); against Pseudomonas aeruginosa, 128 µg/mL (≈ 158 µM); against Bacillus subtilis, 4 µg/mL (≈ 4.92 µM); in the test on Streptococcus pneumoniae [8], 128 µg/mL (≈ 158 µM); in the test on Streptococcus pyogenes [9], 1 µg/mL (≈ 1.23 µM). Further, the Ratio with Streptococcus pneumoniae [7] is listed as 16; in the test on Streptococcus pneumoniae [10], 32.

Turning to `CCCNC(=O)O[C@H]1[C@H](C)[C@@H](O[C@@H]2O[C@H](C)C[C@H](N(C)C)[C@H]2O)[C@](C)(OC)C[C@@H](C)/C(=N/OCc2ccccc2Cl)[C@H](C)[C@@H](O)[C@](C)(O)[C@@H](CC)OC(=O)[C@@H]1C`, the MIC with Streptococcus pneumoniae [1] came to 0.125 µg/mL (≈ 0.153 µM); in the test with Streptococcus pyogenes [2], 8 µg/mL (≈ 9.82 µM); in the test on Escherichia coli, 128 µg/mL (≈ 157 µM); with Streptococcus pneumoniae [3], 128 µg/mL (≈ 157 µM); with Staphylococcus aureus [4], 128 µg/mL (≈ 157 µM); with Staphylococcus aureus [5], 8 µg/mL (≈ 9.82 µM). The MIC came to 16 µg/mL (≈ 19.6 µM) in the test with Staphylococcus aureus [6]; 128 µg/mL (≈ 157 µM) with Pseudomonas aeruginosa; 2 µg/mL (≈ 2.46 µM) with Bacillus subtilis; 128 µg/mL (≈ 157 µM) with Streptococcus pneumoniae [8]; 1 µg/mL (≈ 1.23 µM) in the test on Streptococcus pyogenes [9]. Moreover, the Ratio is reported as 32 in the test on Streptococcus pyogenes [11], 32 in the test on Streptococcus pyogenes [12], 16 in the test on Streptococcus pneumoniae [7] and 32 in the test on Streptococcus pneumoniae [10].

Consider `CC[C@H]1OC(=O)[C@H](C)[C@@H](OC(=O)NCc2cccc(F)c2)[C@H](C)[C@@H](O[C@@H]2O[C@H](C)C[C@H](N(C)C)[C@H]2O)[C@](C)(OC)C[C@@H](C)/C(=N/OCc2ccccc2Cl)[C@H](C)[C@@H](O)[C@]1(C)O`, for which the MIC in the test with Streptococcus pneumoniae [1] is 0.5 µg/mL (≈ 0.568 µM); against Streptococcus pyogenes [2], 8 µg/mL (≈ 9.09 µM); against Escherichia coli, 128 µg/mL (≈ 145 µM); against Streptococcus pneumoniae [3], 128 µg/mL (≈ 145 µM); against Staphylococcus aureus [4], 128 µg/mL (≈ 145 µM); against Staphylococcus aureus [5], 4 µg/mL (≈ 4.54 µM). Also, the MIC with Staphylococcus aureus [6] worked out at 4 µg/mL (≈ 4.54 µM); in the test on Pseudomonas aeruginosa, 128 µg/mL (≈ 145 µM); in the test on Bacillus subtilis, 2 µg/mL (≈ 2.27 µM); in the test on Streptococcus pneumoniae [8], 128 µg/mL (≈ 145 µM); in the test on Streptococcus pyogenes [9], 1 µg/mL (≈ 1.14 µM). Moreover, the Ratio in the test with Streptococcus pyogenes [11] is on record as 32; in the test on Streptococcus pyogenes [12], 32; in the test on Staphylococcus aureus [13], 64; in the test on Staphylococcus aureus [14], 64.
